# Source: US9969699B2, “Cancer cell growth inhibitor, anticancer agent, and method for screening same, as well as novel compound” (Microbial Chemistry Research Foundation, priority 2014, dated 2018)
# Assays:
# [1] = system: NIH3T3/EGFR vIII cells; assay: 3D cell culture step (environment without adhesion scaffold), proliferation of NIH3T3/EGFR vIII cells; type: cell-based, mouse
# [2] = system: NIH3T3 cells; assay: 2D cell culture step (environment with adhesion scaffold), proliferation of NIH3T3 cells; type: cell-based; conditions: Mus musculus, 72 h; NIH3T3 cells, TC-treated plate, 3 days, […]-GLO; read-out: IC50 2D cell culture step
# Description: Note that, as a negative control, the NIH3T3 cells at 2×10^3 cells/100 were seeded to the same plate in a volume of 100 μL per well and cultured at 37° C. in the presence of 5% CO2 for 3 days without the addition of the test substance.
# Note that, Dulbecco's Modified Eagle Medium supplemented with 5% FBS was used for the culture.
# A cell proliferation inhibition rate in the 2D cell culture step was calculated according to (Expression 2) below. Cell proliferation inhibition rate(%)=(1−D/E)×100 (Expression 2)
# In the (Expression 2), D denotes the number of viable NIH3T3 cells when the test substance was added, and E denotes the number of viable NIH3T3 cells when the test substance was not added.
# [3] = system: NIH3T3/EGFRWT cells; assay: 3D cell culture step, NIH3T3/EGFRWT cells in EGF-including medium; type: cell-based, mouse; conditions: Test Example 3, NIH3T3/EGFRWT cells, EGF-including medium
# Description: (§1) After the 3 days of culture, the number of viable cells was counted by […]-GLO (trademark) Luminescent Cell Viability Assay (available from Promega), which was a method for quantitating ATP in viable cells. A cell proliferation inhibition rate in the 3D cell culture step was calculated according to (Expression 3) below. Cell proliferation inhibition rate(%)=(1−X/Y)×100 (Expression 3)
# (§2) In the (Expression 3), X denotes the number of viable cells when the test substance was added, and Y denotes the number of viable cells when the test substance was not added.
# [4] = system: U251 cells; assay: 3D cell culture step, EGFR vIII gene non-expressing brain tumor cells U251; type: cell-based; conditions: Test Example 3, U251 cells
# Description: (§3) The following 3 brain tumor cells were used as the EGFR vIII gene non-expressing cells. • U251 cells (available from ATCC) • U87MG cells (available from ATCC) • KS-1 cells (available from ATCC) <3D Cell Culture Step>
# as §1, §2
# [5] = system: KS-1 cells; assay: 3D cell culture step, EGFR vIII gene non-expressing brain tumor cells KS-1; type: cell-based; conditions: Test Example 3, KS-1 cells
# Description: as §3, §1, §2
# [6] = system: U87MG cells; assay: 3D cell culture step, EGFR vIII gene non-expressing brain tumor cells U87MG; type: cell-based; conditions: Test Example 3, U87MG cells
# Description: as §3, §1, §2
smiles,measurement,setting,value
"COc1cc2ncnc(Nc3cccc(Cl)c3)c2cc1OC [AG1478, reference compound]",IC50,"[1]; Mus musculus, 72 h, NIH3T3/EGFR vIII cells, Ultra Low Attachment plate, 3 days, […]-GLO",1 µM
same,inhibiting activity against scaffold-independent proliferation capacity,"[1]; Test Example 3, NIH3T3/EGFR vIII cells",exhibited an inhibiting activity
same,inhibition of proliferation of NIH3T3 cells expressing EGFR mutant vIII in the 3D cell culture step,[1]; result in words from Table 1,inhibited proliferation
same,IC50,[2],50 µM
same,inhibiting activity against scaffold-independent proliferation capacity,[3],exhibited an inhibiting activity
same,inhibiting activity against scaffold-independent proliferation capacity,[4],did not exhibit an inhibiting activity
same,inhibiting activity against scaffold-independent proliferation capacity,[5],did not exhibit an inhibiting activity
same,inhibiting activity against scaffold-independent proliferation capacity,[6],did not exhibit an inhibiting activity
